Values of other authors as cited in patent US9750812B2, “Lipid based pharmaceutical preparations for oral and topical application; their compositions, methods, and uses thereof” (JINA PHARMACEUTICALS, INC., priority 2008, dated 2017).

solubility in organic solvents (organic solvents such as ethanol and methanol): soluble
solubility in water (water): practically insoluble
Compound: CC(C)(C)NC(=O)[C@H]1CC[C@H]2[C@@H]3CC[C@H]4NC(=O)C=C[C@]4(C)[C@H]3CC[C@]12C [finasteride, (5α, 17β)-N-(1,1-dimethylethyl)-3-oxo-4-azaandrost-1-ene-17-carboxamide]
